Data reported in patent publication US20140296479A1, “D-APTIDE AND RETRO-INVERSO APTIDE WITH MAINTAINED TARGET AFFINITY AND IMPROVED STABILITY” (GWANGJU INSTITUTE OF SCIENCE AND TECHNOLOGY, priority 2011, published 2014).
Each block holds one molecule with its values, some of them ahead of it. Where a SMILES comes first, the peptide text is derived from it. Where no end group is shown, it is not given here. [ ]: non-standard residue; d: D form.

Tests used:
[1] = target: HSA (Human serum albumin) (Homo sapiens, UniProt P02768); assay: BIAcore X (SPR) affinity for HSA; type: binding; settings: for kon: PBS pH 7.4, read-out: ka
Protocol: (§1) To investigate whether the activity is maintained where Aptamer-Like Peptides specifically binding to HSA (Human serum albumin), i.e., L-AptideHSA are converted into D- and Retro inverso (RI)-form, their affinity to a target was measured. Firstly, 3 peptides, L-AptideHSA ([…], all L-amino acids, SEQ ID NO:42), D-AptideHSA ([…], all D-amino acids, SEQ ID NO:42) and RI-AptideHSA ([…], all D-amino acids), were synthesized by Anigen Inc. (Korea). Their affinity for a target was determined using BIAcore X (Biacore AB, Uppsala, Sweden). HSA of 3000 RU was immobilized on CM5 chip (Biacore). A PBS (pH 7.4) was used as a running buffer, a flow rate was 30 μl/min, and the affinity was determined with BIAevaluation software (Biacore AB, Uppsala, Sweden) after measuring kinetics of various concentrations.

[2] = target: T1, fibronectin EDB (Homo sapiens, UniProt P02751); assay: BIAcore X (SPR) affinity for fibronectin EDB; type: binding
T1 construct: Biotin-EDB of 2000 RU was immobilized on streptavidin SA chip
Protocol: To investigate whether the activity is maintained where Aptamer-Like Peptides specifically binding to fibronectin EDB, i.e., L-Aptide1EDB are converted into D- and Retro inverso (RI)-form, their affinity to a target was measured. Firstly, 3 peptides, L-Aptide1EDB ([…], all L-amino acids, SEQ ID NO:21), D-Aptide1EDB ([…], all D-amino acids, SEQ ID NO:21) and RI-Aptide1EDB ([…], all D-amino acids), were synthesized by Anigen Inc. (Korea). Their affinity for a target was determined using BIAcore X (Biacore AB, Uppsala, Sweden). Biotin-EDB of 2000 RU was immobilized on streptavidin SA chip (Biacore). A PBS (pH 7.4) was used as a running buffer, a flow rate was 30 μl/min, and the affinity was determined with BIAevaluation software (Biacore AB, Uppsala, Sweden) after measuring kinetics of various concentrations.

[3] = target: T2, VEGF121 (Homo sapiens, UniProt P15692); assay: BIAcore X (SPR) affinity for VEGF; type: binding
T2 sequence (P15692 27-147 isoform P15692-9): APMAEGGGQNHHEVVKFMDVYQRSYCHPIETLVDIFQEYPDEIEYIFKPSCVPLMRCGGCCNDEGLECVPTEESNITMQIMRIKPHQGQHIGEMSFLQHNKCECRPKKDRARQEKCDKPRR
Protocol: as §1, with “VEGF (Vascular endothelial growth factor),” for “HSA (Human serum albumin),”, “L-Aptide1VEGF” for “L-AptideHSA”, “NO:23), D-Aptide1VEGF” for “NO:42), D-AptideHSA”, “NO:23)” for “NO:42)”, “RI-Aptide1VEGF” for “RI-AptideHSA”, “VEGF121” for “HSA”

[4] = target: T3, HSA (Human serum albumin) (human, UniProt P02768 25-609); assay: SPR, BIAcore X; HSA on CM5 chip, peptide as analyte
T3 construct: HSA, 3000 RU, immobilised on a CM5 chip; also called HAS
T3 sequence (P02768 25-609 limits assumed): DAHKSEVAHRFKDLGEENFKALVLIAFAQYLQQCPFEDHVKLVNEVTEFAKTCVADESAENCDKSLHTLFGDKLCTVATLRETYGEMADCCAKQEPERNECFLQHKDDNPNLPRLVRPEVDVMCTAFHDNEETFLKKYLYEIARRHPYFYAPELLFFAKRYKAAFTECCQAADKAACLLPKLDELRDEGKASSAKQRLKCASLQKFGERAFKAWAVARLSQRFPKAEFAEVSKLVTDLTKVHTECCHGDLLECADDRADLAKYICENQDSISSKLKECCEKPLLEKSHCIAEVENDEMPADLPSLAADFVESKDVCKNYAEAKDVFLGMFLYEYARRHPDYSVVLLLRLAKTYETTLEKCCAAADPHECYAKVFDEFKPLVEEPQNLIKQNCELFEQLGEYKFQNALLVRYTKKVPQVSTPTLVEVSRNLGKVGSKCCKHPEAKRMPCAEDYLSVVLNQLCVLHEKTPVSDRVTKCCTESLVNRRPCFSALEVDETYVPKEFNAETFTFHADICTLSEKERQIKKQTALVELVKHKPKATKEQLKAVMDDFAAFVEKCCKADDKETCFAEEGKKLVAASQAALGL
Protocol: as §1, with “(Biacore).” for “(Biacore). A PBS (pH 7.4) was used as a running buffer, a flow rate was 30 μl/min, and the affinity was determined with BIAevaluation software (Biacore AB, Uppsala, Sweden) after measuring kinetics of various concentrations.”

[5] = target: T4, VEGF121 (UniProt P15692-9 27-147); assay: SPR, BIAcore X; VEGF121 on CM5 chip, peptide as analyte
T4 construct: VEGF121, 3000 RU, immobilised on a CM5 chip; also called Vascular endothelial growth factor
T4 sequence (looked up): T2 sequence (P15692 27-147 isoform P15692-9)
Protocol: To investigate whether the activity is maintained where Aptamer-Like Peptides specifically binding to VEGF (Vascular endothelial growth factor), i.e., L-Aptide1VEGF are converted into D- and Retro inverso (RI)-form, their affinity to a target was measured. Firstly, 3 peptides, L-Aptide1VEGF ([…], all L-amino acids, SEQ ID NO:23), D-Aptide1VEGF ([…], all D-amino acids, SEQ ID NO:23) and RI-Aptide1VEGF ([…], all D-amino acids), were synthesized by Anigen Inc. (Korea). Their affinity for a target was determined using BIAcore X (Biacore AB, Uppsala, Sweden). VEGF₁₂₁ of 3000 RU was immobilized on CM5 chip (Biacore).

[6] = biotin-EDB on SA chip, PBS pH 7.4
[7] = VEGF121 on CM5 chip, PBS pH 7.4

Molecule: CC[C@@H](C)[C@@H](NC(=O)CNC(=O)[C@@H](CCCCN)NC(=O)[C@@H](Cc1c[nH]c2ccccc12)NC(=O)[C@H](NC(=O)[C@@H](Cc1c[nH]c2ccccc12)NC(=O)[C@@H](CCCCN)NC(=O)CNC(=O)[C@@H](CC(N)=O)NC(=O)[C@@H](CCC(=O)O)NC(=O)[C@@H](Cc1c[nH]c2ccccc12)NC(=O)[C@H](NC(=O)[C@@H](Cc1c[nH]c2ccccc12)NC(=O)[C@@H](CO)NC(=O)CNC(=O)[C@@H](Cc1ccccc1)NC(=O)[C@@H](CC(N)=O)NC(=O)[C@@H](Cc1ccccc1)NC(=O)[C@@H](Cc1c[nH]cn1)NC(=O)[C@@H](C)NC(=O)[C@H](N)Cc1c[nH]cn1)[C@H](C)O)[C@H](C)O)C(=O)N[C@H](Cc1c[nH]c2ccccc12)C(=O)N[C@H](CC(C)C)C(=O)N1CCC[C@@H]1C(=O)N[C@H](C)C(=O)N[C@H](CCCNC(=N)N)C(=O)O [D-AptideHSA] (H-[dH][dA][dH][dF][dN][dF]G[dS][dW][dT][dW][dE][dN]G[dK][dW][dT][dW][dK]G[dI][dW][dL][dP][dA][dR]-OH; N-terminus and C-terminus assumed)
kd ([1]; HSA on CM5 chip, PBS pH 7.4): 0.014 s⁻¹
kon ([1]; HSA on CM5 chip): 97000 M⁻¹ s⁻¹

Molecule: CC[C@H](C)[C@H](NC(=O)CNC(=O)[C@H](CCCCN)NC(=O)[C@H](Cc1c[nH]c2ccccc12)NC(=O)[C@@H](NC(=O)[C@H](Cc1c[nH]c2ccccc12)NC(=O)[C@H](CCCCN)NC(=O)CNC(=O)[C@H](CC(N)=O)NC(=O)[C@H](CCC(=O)O)NC(=O)[C@H](Cc1c[nH]c2ccccc12)NC(=O)[C@@H](NC(=O)[C@H](Cc1c[nH]c2ccccc12)NC(=O)[C@H](CO)NC(=O)CNC(=O)[C@H](Cc1ccccc1)NC(=O)[C@H](CC(N)=O)NC(=O)[C@H](Cc1ccccc1)NC(=O)[C@H](Cc1c[nH]cn1)NC(=O)[C@H](C)NC(=O)[C@@H](N)Cc1c[nH]cn1)[C@@H](C)O)[C@@H](C)O)C(=O)N[C@@H](Cc1c[nH]c2ccccc12)C(=O)N[C@@H](CC(C)C)C(=O)N1CCC[C@H]1C(=O)N[C@@H](C)C(=O)N[C@@H](CCCNC(=N)N)C(=O)O [L-AptideHSA] (H-HAHFNFGSWTWENGKWTWKGIWLPAR-OH; N-terminus and C-terminus assumed)
kd ([1]; HSA on CM5 chip, PBS pH 7.4): 0.013 s⁻¹
kon ([1]; HSA on CM5 chip): 95000 M⁻¹ s⁻¹

Molecule: CC[C@@H](C)[C@@H](NC(=O)[C@@H](CCCNC(=N)N)NC(=O)[C@@H](CC(C)C)NC(=O)[C@@H](CCC(=O)O)NC(=O)[C@H](N)CCC(N)=O)C(=O)N[C@@H](C(=O)NCC(=O)N[C@H](CCCCN)C(=O)N[C@H](Cc1c[nH]c2ccccc12)C(=O)N[C@@H](C(=O)N[C@H](Cc1c[nH]c2ccccc12)C(=O)N[C@H](CCCCN)C(=O)NCC(=O)N[C@H](CC(N)=O)C(=O)N[C@H](CCC(=O)O)C(=O)N[C@H](Cc1c[nH]c2ccccc12)C(=O)N[C@@H](C(=O)N[C@H](Cc1c[nH]c2ccccc12)C(=O)N[C@H](CO)C(=O)NCC(=O)N[C@@H](C(=O)N[C@H](C)C(=O)N[C@H](CO)C(=O)N[C@H](CO)C(=O)N[C@H](CS)C(=O)N[C@H](Cc1c[nH]cn1)C(=O)O)C(C)C)[C@H](C)O)[C@H](C)O)[C@H](C)CC [RI-Aptide1EDB] (H-[dQ][dE][dL][dR][dI][dI]G[dK][dW][dT][dW][dK]G[dN][dE][dW][dT][dW][dS]G[dV][dA][dS][dS][dC][dH]-OH; N-terminus and C-terminus assumed)
Kd [2, 6]: 58 nM
koff (dissociation rate constant) [2, 6]: 0.0011 s⁻¹
kon ([2]; biotin-EDB on SA chip, PBS pH 7.4, read-out: ka): 19000 M⁻¹ s⁻¹
binding to target, in words ([2]; compared with L-Aptide): affinity similar to L-Aptide

Molecule: CC[C@@H](C)[C@@H](NC(=O)[C@@H](Cc1c[nH]c2ccccc12)NC(=O)[C@@H](CC(C)C)NC(=O)[C@H]1CCCN1C(=O)[C@@H](C)NC(=O)[C@H](N)CCCNC(=N)N)C(=O)NCC(=O)N[C@H](CCCCN)C(=O)N[C@H](Cc1c[nH]c2ccccc12)C(=O)N[C@@H](C(=O)N[C@H](Cc1c[nH]c2ccccc12)C(=O)N[C@H](CCCCN)C(=O)NCC(=O)N[C@H](CC(N)=O)C(=O)N[C@H](CCC(=O)O)C(=O)N[C@H](Cc1c[nH]c2ccccc12)C(=O)N[C@@H](C(=O)N[C@H](Cc1c[nH]c2ccccc12)C(=O)N[C@H](CO)C(=O)NCC(=O)N[C@H](Cc1ccccc1)C(=O)N[C@H](CC(N)=O)C(=O)N[C@H](Cc1ccccc1)C(=O)N[C@H](Cc1c[nH]cn1)C(=O)N[C@H](C)C(=O)N[C@H](Cc1c[nH]cn1)C(=O)O)[C@H](C)O)[C@H](C)O [RI-AptideHSA] (H-[dR][dA][dP][dL][dW][dI]G[dK][dW][dT][dW][dK]G[dN][dE][dW][dT][dW][dS]G[dF][dN][dF][dH][dA][dH]-OH; N-terminus and C-terminus assumed)
Kd ([1]; HSA on CM5 chip, PBS pH 7.4): 141 nM
kd ([1]; HSA on CM5 chip, PBS pH 7.4): 0.0082 s⁻¹
kon ([1]; HSA on CM5 chip): 58000 M⁻¹ s⁻¹
binding to target, in words ([1]; compared with L-Aptide): affinity similar to L-Aptide

Next, values leading:

binding to target, in words [3]: barely bound
Kd [3, 7]: Non-binding
ka [3, 7]: Non-binding
kd [3, 7]: Non-binding
Molecule: SQNYKWGKWTWKGNEWTWSGQFFNAH [RI-Aptide1VEGF]

koff [4]: 0.0082 s⁻¹
B1: RI-AptideHSA (designed binder)
peptide: [dR][dA][dP][dL][dW][dI]G[dK][dW][dT][dW][dK]G[dN][dE][dW][dT][dW][dS]G[dF][dN][dF][dH][dA][dH]

Kd [4]: 142 nM
koff [4]: 0.013 s⁻¹
B2: L-AptideHSA (designed binder)
peptide: HAHFNFGSWTWENGKWTWKGIWLPAR
notes: Synthetic 26-mer, all L-amino acids; also called AptideHSA (L-form)

koff [5]: 0.0066 s⁻¹
B3: D-Aptide1VEGF (designed binder)
peptide: [dH][dA][dN][dF][dF][dQ]G[dS][dW][dT][dW][dE][dN]G[dK][dW][dT][dW][dK]G[dW][dK][dY][dN][dQ][dS]

Kd [4]: 153 nM
koff [4]: 0.014 s⁻¹
B4: D-AptideHSA (designed binder)
peptide: [dH][dA][dH][dF][dN][dF]G[dS][dW][dT][dW][dE][dN]G[dK][dW][dT][dW][dK]G[dI][dW][dL][dP][dA][dR]

Kd [5]: 30 nM
koff [5]: 0.01 s⁻¹
B5: L-Aptide1VEGF (designed binder)
peptide: HANFFQGSWTWENGKWTWKGWKYNQS
notes: Synthetic 26-mer, all L-amino acids; also called L-AptideVEGF; Aptide1VEGF (L-form)
